Where two headings read alike, the source gives them in different places.
Key:
[1] = target: ITK (Homo sapiens (Human), UniProt Q08881); test: ITK inhibitor binding potency (LanthaScreen competitive binding assay); details: read-out: ITK Inh. IC50
Source text: The ability of candidate compounds to interact with ITK is quantitated by a competitive binding assay using the LanthaScreen technology developed by Life Technologies. This assay is based on the binding of a proprietary, Alexa Fluor® 647-labeled, ATP-competitive kinase inhibitor (kinase tracer-236) to the ITK expression construct in the presence of a Europium-conjugated antibody, resulting in a FRET (fluorescence resonance energy transfer) signal. Displacement of the kinase tracer by compound results in a lower emission ratio upon excitation of the Europium chelate. Candidate compounds are designed as potential irreversible inhibitors of ITK, capable of ligating to an active site cysteine residue resulting in time dependent covalent binding. The time dependent nature of irreversible inhibition is investigated by performing the binding assay with and without a pre-incubation of compound and ITK. […] The inhibitory potency of candidate compounds is measured in 20 mM HEPES pH 7.5, 10 mM MgCl2, 0.01% BSA, 0.0005% Tween-20, and 2% DMSO in the presence of 10 nM ITK, 2 nM Eu-anti-GST antibody, and 50 nM kinase tracer-236 using a 384-well plate format. Background signal is defined in the absence of ITK and uninhibited signal is defined in the presence of vehicle (2% DMSO) alone. Compounds were evaluated in an 11 point dose-response ranging from 20 uM to 0.34 nM. The binding assays are performed under two preincubation conditions to evaluate time dependence of inhibition. For the pre-incubation assay, ITK and Eu-anti-GST antibody are pre-incubated with compound or vehicle for two hours prior to the addition of kinase tracer. The non-preincubated assay is run under conditions where ITK and Eu-anti-GST antibody are added to a mixture of compound and kinase tracer. IC50 values of compounds are determined using a 4 parameter logistical fit of emission ratio as a function of the concentration of compound.

[2] = target: JAK3 (Homo sapiens (Human), UniProt P52333); test: JAK3 enzyme activity assay (Caliper mobility shift); assay type: biochemical; details: ATP at Km level; read-out: JAK3 Inh. IC50
Source text: The ability of candidate compounds to interact with JAK3 is quantitated by a mobility shift assay using an LC3000 instrument developed by Caliper Life Sciences. This assay is based on mobility shift electrophoresis, in which fluorescently labelled product and fluorescently labelled substrate peaks are separated and detected independently. JAK3 product/substrate separation is obtained using the following instrument settings: Pressure=−1.4 psi, Downstream voltage=−2550V and Upstream voltage=−800V. The inhibitory potency of candidate compounds of JAK3 is measured in 20 mM HEPES pH 7.5, 10 mM MgCl2, 0.01% BSA, 0.0005% Tween-20, and 2% DMSO in the presence of 2.5 nM JAK3 (Life Technologies Catalog #PV3855), […] (Anaspec Catalog #AS-64106) and […] (Km level) using a 384-well plate format. Background signal is defined in the absence of enzyme and uninhibited signal is defined in the presence of vehicle (2% DMSO) alone. Compounds were evaluated in an 11 point dose-response ranging from […] to 0.34 nM. IC50 values of compounds are determined using a 4 parameter logistical fit of emission ratio as a function of the concentration of compound.

[3] = tested on: JAK1/3 phosphorylation of its substrate, STAT5, at Y694; test: JAK1/3 target modulation assay (IL-2 stimulated STAT5 Y694 phosphorylation in PBMC); assay type: cell-based; details: Primary human peripheral blood mononuclear cells, IL-2 25 ng/mL, read-out: IL2-STAT5 Inh. IC50
Method: Target modulation was based upon the ability of a compound to inhibit JAK1/3 phosphorylation of its substrate, STAT5, at Y694. Primary human peripheral blood mononuclear cells were plated in V-bottom 96 well plates at 200,000 cells/well in 120 μL medium (RPMI-1640 with 10% fetal bovine serum, 10 mM HEPES buffer, 12.2 mM 2-mercaptoethanol, and supplemented with glutamine/penicillin/streptomycin). Compounds were added as 15 μL of 10× working stock solutions in medium with 1% DMSO (or medium with 1% DMSO for controls) and placed in a 37° C. incubator with gentle shaking for 1 hour. Stimulation was carried out using recombinant human IL-2 (R&D Systems #202-IL-050) to activate JAK1/3. IL-2 stock solution was diluted in media to 250 ng/mL and was added rapidly to all compound containing and stimulation only wells at 15 μL/well (final concentration=25 ng/mL). Wells designated ‘unstimulated’ received 15 μL of media only. The plate was placed back in a 37° C. incubator with gentle shaking for 5 minutes. After stimulation, the plates were immediately sealed with a plate seal, and cells pelleted at 400× g for 5 minutes. Media was removed using a multichannel aspirator, and 75 μL of cold Tris lysis buffer (MSD #R60TX-3) plus 1× Protease Inhibitor Solution (MSD #R70AA-1), 1× Phosphatase Inhibitor I (MSD #R70AA-1), and 1× Phosphatase Inhibitor II (MSD #R70AA-1) was added per well. Cells were incubated at 4° C. with gentle shaking for at least 30 minutes to allow for complete lysis. The plates were removed from 4° C., and 25 μL of lysate from each well was added to the corresponding well on the MSD plate. Samples were analyzed by either an MSD multiplex kit for Phospho-STAT5a,b/Total-STAT5a,b (MSD #K15163D) or an MSD single-plex kit for Phospho-STAT5a,b (MSD #K150IGD). The protocols for the respective kits were followed, and the plates were read on the MSD SECTOR S 600.

[4] = tested on: ITK phosphorylation of its substrate, PLCγ1, at Y783; test: ITK target modulation assay (PLCγ1 Y783 phosphorylation, anti-CD3 stimulated Jurkat T cells); assay type: cell-based; details: anti-CD3 Dynabeads stimulation, read-out: PLC-γ Inh. IC50
Method: Target modulation was based upon the ability of a compound to inhibit ITK phosphorylation of its substrate, PLCγ1, at Y783. Human Jurkat T cells (ATCC TIB-152) were plated in V-bottom 96 well plates at 400,000 cells/well in 80 μL medium (RPMI1640 with 10% heat inactivated serum and 55 μM 2-mercaptoethanol and supplemented with glutamine/penicillin/streptomycin). Compounds were added as 10 μL of 10× working stock solutions in medium with 1% DMSO (or medium with 1% DMSO for controls) and placed in a 37° C. incubator with gentle shaking for 1 hour. Stimulation was carried out using anti-CD3 Dynabeads (Invitrogen catalog #1151D) to activate the T cell receptor and mimic antigen presenting cells. Beads were washed and resuspended in medium at 1.84×10^8 beads/ml. Beads were added rapidly to all compound containing and stimulation only wells at 10 μL/well (bead:cell=2:1) with gentle mixing of the bead source between each addition. Wells designated ‘unstimulated’ received 10 μL of media only. The plate was immediately sealed with a plate seal and cells pelleted at 400× g for 4 minutes. Media was removed using a multichannel aspirator, 25 μL of cold hypotonic lysis buffer (VWR M334-100 ml) plus 1×HALT Protease Inhibitor Cocktail (ThermoFisher #78437), 1× Phosphatase Inhibitor Cocktail 2 (Sigma Aldrich #P5726), 1× Phosphatase Inhibitor Cocktail 3 (Sigma Aldrich #P0044) and 2 mM PMSF was added per well. Cells were incubated on ice for 30 minutes to swell the cells then lysed by pipetting 20 times using a multichannel pipet. The plates were then resealed and centrifuged for 5 minutes at 400× g to pellet the cellular debris. Two μL of the soluble component of each sample was spotted onto nitrocellulose and allowed to dry for 30 minutes. Nitrocellulose was wet in 1× Tris Buffer Saline (20 mM Tris pH7.5, 150 mM NaCl) then blocked in LiCOR Odyssey Blocking Buffer (TBS) (LiCOR #927-50000) for 1 hour at room temperature with rocking. Following blocking, nitrocellulose was incubated in LiCOR Odyssey Blocking Buffer (TBS) plus 0.2% Tween20 plus anti-phospho-PLCγ1 (Y783) antibody (CST #2821S) at 1:1000 and anti-PLCγ1 (Abcam #41433) at 1:5000 with gentle rocking overnight at 4° C. Nitrocellulose was then washed four times for 5 minutes each with TBS plus 0.1% Tween20 (TBST) then incubated in LiCOR Odyssey Blocking Buffer (TBS) plus 0.2% Tween20 plus secondary antibodies IRDye 800CW (LiCOR 926-32211) and IRDye 680RD (LiCOR 926-68070) both at 1:15,000 with gentle rocking at room temperature in the dark for 1 hour. Nitrocellulose was then washed four times for 5 minutes each with TBST at room temperature in the dark. A final rinse with TBS was done prior to imaging and quantifying using the LiCOR Odyssey Imager and software respectively.

Chain of JAK3 (P52333 781-1124): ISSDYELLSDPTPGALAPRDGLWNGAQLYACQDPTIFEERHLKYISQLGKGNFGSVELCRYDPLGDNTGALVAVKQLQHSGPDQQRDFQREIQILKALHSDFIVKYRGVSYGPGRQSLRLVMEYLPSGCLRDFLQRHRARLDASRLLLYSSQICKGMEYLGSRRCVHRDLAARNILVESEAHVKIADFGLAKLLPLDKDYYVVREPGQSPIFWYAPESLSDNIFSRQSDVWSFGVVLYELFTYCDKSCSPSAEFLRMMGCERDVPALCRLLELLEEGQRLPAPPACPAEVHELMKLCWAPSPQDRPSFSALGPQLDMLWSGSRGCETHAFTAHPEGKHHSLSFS
Chain of ITK (Q08881 whole entry): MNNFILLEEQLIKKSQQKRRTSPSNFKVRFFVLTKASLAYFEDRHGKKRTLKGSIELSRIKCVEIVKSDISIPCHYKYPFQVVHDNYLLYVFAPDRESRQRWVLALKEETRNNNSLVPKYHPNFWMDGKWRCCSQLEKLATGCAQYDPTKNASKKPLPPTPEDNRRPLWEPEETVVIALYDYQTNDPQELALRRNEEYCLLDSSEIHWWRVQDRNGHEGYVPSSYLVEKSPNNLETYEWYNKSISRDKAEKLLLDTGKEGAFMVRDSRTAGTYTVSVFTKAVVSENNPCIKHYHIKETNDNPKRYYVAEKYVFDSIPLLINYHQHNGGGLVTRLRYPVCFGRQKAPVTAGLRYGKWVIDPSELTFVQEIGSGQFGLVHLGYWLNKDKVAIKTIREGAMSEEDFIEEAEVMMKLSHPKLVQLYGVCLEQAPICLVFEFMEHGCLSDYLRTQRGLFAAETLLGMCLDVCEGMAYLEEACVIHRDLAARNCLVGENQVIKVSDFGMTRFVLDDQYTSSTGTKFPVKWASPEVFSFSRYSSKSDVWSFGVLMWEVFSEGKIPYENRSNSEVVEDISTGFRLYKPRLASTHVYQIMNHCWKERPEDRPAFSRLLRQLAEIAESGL

C=CC(=O)N1C[C@H](Nc2ncnc3[nH]cc(CC4CCC(CC)C4)c23)CC[C@@H]1C (mixture of isomers) [Example 36, 1-((2S,5R)-5-((5-((3-ethylcyclopentyl)methyl)-7H-pyrrolo[2,3-d]pyrimidin-4-yl)amino)-2-methylpiperidin-1-yl)prop-2-en-1-one]
IC50 [1]: ≤ 0.01 µM
IC50 [2]: ≤ 0.01 µM
IC50 ([3]; Homo sapiens, PBMC): 0.1 to 1 µM
IC50 ([4]; Homo sapiens, Jurkat): 0.1 to 1 µM

C=CC(=O)N1C[C@H](Nc2ncnc3[nH]cc(C4CC4COC)c23)CC[C@@H]1C (mixture of isomers) [Example 44, 1-((2S,5R)-5-((5-(2-(methoxymethyl)cyclopropyl)-7H-pyrrolo[2,3-d]pyrimidin-4-yl)amino)-2-methylpiperidin-1-yl)prop-2-en-1-one]
IC50 [1]: ≤ 0.01 µM
IC50 [2]: ≤ 0.01 µM
IC50 ([3]; Homo sapiens, PBMC): 0.1 to 1 µM
IC50 ([4]; Homo sapiens, Jurkat): ≤ 0.1 µM

C=CC(=O)N1C[C@H](Nc2ncnc3[nH]cc(C4CC4(F)F)c23)CC[C@@H]1C (mixture of isomers) [Example 47, 1-((2S,5R)-5-((5-(2,2-difluorocyclopropyl)-7H-pyrrolo[2,3-d]pyrimidin-4-yl)amino)-2-methylpiperidin-1-yl)prop-2-en-1-one]
IC50 [1]: ≤ 0.01 µM
IC50 [2]: ≤ 0.01 µM
IC50 ([3]; Homo sapiens, PBMC): ≤ 0.1 µM
IC50 ([4]; Homo sapiens, Jurkat): ≤ 0.1 µM

C[C@H]1CC[C@@H](Nc2ncnc3[nH]cc(C4CC4(F)F)c23)CN1C(=O)/C=C/CN(C)C (mixture of isomers) [Example 59, (E)-1-((2S,5R)-5-((5-(2,2-difluorocyclopropyl)-7H-pyrrolo[2,3-d]pyrimidin-4-yl)amino)-2-methylpiperidin-1-yl)-4-(dimethylamino)but-2-en-1-one]
IC50 [1]: ≤ 0.01 µM
IC50 [2]: 0.01 to 0.1 µM
IC50 ([4]; Homo sapiens, Jurkat): ≤ 0.1 µM

C=CC(=O)N1CCC[C@@H](Nc2ncnc3[nH]cc(C(=O)[C@H]4CCOC4)c23)C1 (single isomer, unassigned) [Example 11]
IC50 [1]: 0.01 to 0.1 µM
IC50 [2]: > 0.1 µM
IC50 ([3]; Homo sapiens, PBMC): > 1 µM
IC50 ([4]; Homo sapiens, Jurkat): > 1 µM

C=CC(=O)N1CCC[C@@H](Nc2ncnc3[nH]cc(C(=O)[C@@H]4CCOC4)c23)C1 (single isomer, unassigned) [Example 12]
IC50 [1]: ≤ 0.01 µM
IC50 [2]: 0.01 to 0.1 µM
IC50 ([3]; Homo sapiens, PBMC): > 1 µM
IC50 ([4]; Homo sapiens, Jurkat): > 1 µM

C=CC(=O)N1CCC[C@@H](Nc2ncnc3[nH]cc([C@H]4C[C@@H]4COC)c23)C1 (single isomer, unassigned) [Example 25]
IC50 [1]: ≤ 0.01 µM
IC50 [2]: 0.01 to 0.1 µM
IC50 [3]: > 1 µM
IC50 ([4]; Homo sapiens, Jurkat): 0.1 to 1 µM

C=CC(=O)N1CCC[C@@H](Nc2ncnc3[nH]cc([C@H]4C[C@@H]4COC)c23)C1 (single isomer, unassigned) [Example 26]
IC50 [1]: ≤ 0.01 µM
IC50 [2]: ≤ 0.01 µM
IC50 [3]: 0.1 to 1 µM
IC50 ([4]; Human Jurkat T cells): ≤ 0.1 µM

C=CC(=O)N1C[C@H](Nc2ncnc3[nH]cc([C@H]4C(C)(C)C4(F)F)c23)CC[C@@H]1C (single isomer, unassigned) [Example 53]
IC50 [1]: ≤ 0.01 µM
IC50 ([3]; Homo sapiens, PBMC): ≤ 0.1 µM
IC50 ([4]; Homo sapiens, Jurkat): 0.1 to 1 µM

C=CC(=O)N1CCC[C@@H](Nc2ncnc3[nH]cc([C@@]45CCC[C@@H]4C5(F)F)c23)C1 (single isomer, unassigned) [Example 79, 1-((R)-3-((5-((1R,5S)-6,6-difluorobicyclo[3.1.0]hexan-1-yl)-7H-pyrrolo[2,3-d]pyrimidin-4-yl)amino)piperidin-1-yl)prop-2-en-1-one]
IC50 [1]: ≤ 0.01 µM

C=CC(=O)N1CCC[C@@H](Nc2ncnc3[nH]cc([C@@]45CCC[C@@H]4C5(F)F)c23)C1 (single isomer, unassigned) [Example 79]
IC50 [2]: ≤ 0.01 µM
IC50 ([3]; Homo sapiens, PBMC): 0.1 to 1 µM
IC50 ([4]; Homo sapiens, Jurkat): 0.1 to 1 µM

C=CC(=O)N1C[C@H](Nc2ncnc3[nH]cc(C(=O)C(F)(F)F)c23)CC[C@@H]1C [Example 33, 1-((2S,5R)-2-methyl-5-((5-(2,2,2-trifluoroacetyl)-7H-pyrrolo[2,3-d]pyrimidin-4-yl)amino)piperidin-1-yl)prop-2-en-1-one]
IC50 [1]: ≤ 0.01 µM
IC50 [2]: 0.01 to 0.1 µM
IC50 ([4]; Homo sapiens, Jurkat): 0.1 to 1 µM

Source: US12297203B2, “Pyrrolopyrimidine ITK inhibitors” (ACLARIS THERAPEUTICS, INC., priority 2018, dated 2025)
